Laboratory results from EP4745128A1, “COMPOUND, PHARMACEUTICAL COMPOSITION COMPRISING SAME, AND USE THEREOF” (Shenzhen Zhongge Biological Technology Co., Ltd., priority 2023, dated 2025).
Values belong to the compound of their own block, whether it stands above or below them.

How the values were obtained:
[1] = system: HEK293T/17-ATF4 uORF-Luc-Puro monoclonal cells; assay: Cellular activity assay: ATF4 luciferase reporter, thapsigargin-induced stress; format: cell-based; settings: Homo sapiens, HEK-293T; ATF4 reporter expression; 50 nM thapsigargin, 6 h incubation
Text: The ATF4 luciferase reporter plasmid consists of two components: the 5' untranslated region sequence of the ATF4 gene and the luciferase encoding sequence. Specifically, the ATF4 5' untranslated region sequence (NCBI Database accession number BC022088.2) containing two upstream open reading frames (uORFs) and the firefly luciferase encoding gene were cloned into the pLVX-Puro vector (Unibio, VT1465). The packaging plasmids for lentivirus are psPAX2 (Unibio, VT1444) and pMD2.G (Unibio, VT1443). The three plasmids above were co-transfected into HEK293T/17 cells using X-tremeGENE 9 DNA transfection reagent, and the lentivirus-containing culture medium was collected 48 hours post-transfection. The HEK293T/17 cells transduced with the lentivirus were selected using 1 µg/mL puromycin, followed by obtaining a monoclonal cell line via limited dilution.
Using this cell line, the translational regulation of ATF4 can be detected via […], and the activity of the eIF2B activator can be tested. The specific experimental procedure was as follows: Seed 6,000 HEK293T/17-ATF4 uORF-Luc-Puro monoclonal cells in a 384-well plate and allow the cells to adhere overnight. The test compounds were dissolved in DMSO and added along with 50 nM thapsigargin into the cell culture medium, followed by incubation for 6 h. Thapsigargin was used to induce cellular stress, thereby upregulating translation of the ATF4 protein. After 6 hours of treatment, cells were lysed using the One-Glo Luciferase Assay Kit (Promega #E6120), then the luminescence values were measured using the LUM program of the EnVision 2104 plate reader.
The relative expression level of the ATF4 reporter gene (ATF4 reporter expression %) was calculated as follows: • ATF4 reporter expression %=(ave_sample-ave_vc)/(ave_pc-ave_vc)*100%. • ave_vc: mean signal value of negative control • ave_pc: mean signal value of positive control • ave_sample: mean signal value of sample
The EC50 value was calculated by fitting a dose-response curve: • The correspondence between the relative expression level of the ATF4 reporter gene and the compound concentration was fitted using the nonlinear regression log(inhibitor) vs. response - variable slope (four parameters) approach in GraphPad 9 software. • X axis: log of compound concentration; Y: relative expression level of ATF4 reporter gene. • Y = Bottom + (Top−Bottom)/(1+10^(∧)((LogEC50−X)*HillSlope)) [formula]

[2] = Phase 1 data from healthy subjects; cited from earlier work
[3] = system: model animals; settings: after three days of oral administration; cited from earlier work
[4] = Pharmacokinetic assessment in mice; format: in vivo; settings: plasma
Experimental: The test compound was dissolved in a solvent to prepare a clear solution or homogeneous suspension. Three mice per group were administered 1 mg/kg intravenously in the tails and 30 mg/kg orally (PO). Blood samples were collected at 0.083 h, 0.25 h, 0.5 h, 1 h, 2 h, 4 h, 8 h, and 24 h post intravenous administration, and at 0.25 h, 0.5 h, 1 h, 2 h, 4 h, 6 h, 8 h, and 24 h post oral administration. Plasma samples were centrifuged to obtain the supernatant, which was prepared as samples for quantitative analysis by LC/MS/MS. Table 2 PK Properties of Exemplary Compound 3 in Mice

[5] = system: mouse models; settings: cited from earlier work

Structure (SMILES): O=C(COc1ccc(Cl)c(F)c1)N[C@H]1CC[C@H](Nc2nccnc2O[C@H]2C[C@@H](OC(F)(F)F)C2)CC1 [Compound 1]
EC50 [1]: 0.01 to 0.1 µM

Structure (SMILES): O=C(COc1ccc(Cl)cc1)NC12CC(c3nnc([C@H]4C[C@@H](OC(F)(F)F)C4)o3)(C1)C2 [DNL-343]
safety and tolerability [2]: safe and well-tolerated

Structure (SMILES): NC(CO)(CO)CO.O=C(COc1ccc(Cl)c(F)c1)NC12CCC(NC(=O)COc3ccc(Cl)c(F)c3)(CC1)[C@@H](OCOP(=O)([O-])O)C2.[Na+] [ABBV-CLS-7262]
brain function [3]: restored to youthful levels

AUC(0-t) ([4]; mouse IV (1 mg/kg)): 6.32 µg·h/mL | C0 ([4]; mouse IV (1 mg/kg)): 2620 ng/mL | clearance ([4]; mouse IV (1 mg/kg)): 2.49 mL/min/kg | half-life ([4]; mouse IV (1 mg/kg)): 7.37 h | Vd ([4]; mouse IV (1 mg/kg), read-out: Vss): 1410 L/kg | AUC(0-t) ([4]; mouse PO (30 mg/kg)): 217 µg·h/mL | Cmax ([4]; mouse PO (30 mg/kg)): 20100 ng/mL | Tmax ([4]; mouse PO (30 mg/kg)): 2.33 h | bioavailability ([4]; mouse PO (30 mg/kg)): 114% | half-life ([4]; mouse PO (30 mg/kg)): 8.52 h
Structure (SMILES): O=C(CO[C@H]1C[C@@H](OC(F)(F)F)C1)NC12CC(Nc3nccnc3O[C@H]3C[C@@H](OC(F)(F)F)C3)(C1)C2 [Compound 3]
EC50 [1]: 0.001 to 0.01 µM

Structure (SMILES): FC(F)(F)OC1CN(c2nnc([C@H]3CC[C@H](Nc4nccnc4O[C@H]4C[C@@H](OC(F)(F)F)C4)CC3)o2)C1 [Compound 4]
EC50 [1]: > 0.1 µM

Structure (SMILES): O=C(COc1ccc(Cl)cc1)NC1CCC(NC(=O)COc2ccc(Cl)cc2)CC1 (stereo not drawn) [ISRIB]
long-term memory [5]: improve long-term memory

Structure (SMILES): O=C(COc1ccc(Cl)c(F)c1)N[C@H]1CC[C@H](Nc2ncccc2O[C@H]2C[C@@H](OC(F)(F)F)C2)CC1 [Compound 2]
EC50 [1]: > 0.1 µM

Structure (SMILES): O=C(CO[C@H]1C[C@@H](OC(F)(F)F)C1)N[C@H]1CC[C@H](Nc2nccnc2O[C@H]2C[C@@H](OC(F)(F)F)C2)CC1 [Compound 5]
EC50 [1]: > 0.1 µM
